Source: publication PMC4057667, “Study on Biopharmaceutics Classification and Oral Bioavailability of a Novel Multikinase Inhibitor NCE for Cancer Therapy” (International Journal of Molecular Sciences, 2014)

Legend:
[1] = system: rat duodenum, jejunum and ileum; assay: In situ single-pass intestinal perfusion (SPIP); details: perfusate 40 μg/mL, n = 6
Protocol: The blank perfusion buffer solution was composed of 9.80 g Hanks’ Balanced Salts, 5.96 g 4-2(Hydroxyethyl) piperazine-1-ethanesulfonic acid (HEPES), 1.16 g NaCl, 3.50 g D-glucose and 0.37 g NaHCO3. The pH was adjusted to 6.5. […] The perfusate containing 2 μg/mL of NCE with and without 0.4% SDS was applied to three intestinal segments to investigate the effect of SDS on intestinal absorption of NCE. To examine whether there was any concentration-dependent characteristics or site specific absorption of NCE, 2, 20 and 40 μg/mL of NCE containing 0.4% SDS (w/v) were also studied in three intestinal segments using the same rat perfusion model.
Male Sprague-Dawley rats (170–230 g) were obtained from the Laboratory Animal Center, Sichuan University (Chengdu, China). Prior to the experiment, animals were fasted for at least 18 h with free access to water. All animal studies were approved and supervised by the State Key Laboratory of Biotherapy Animal Care and Use Committee (Sichuan University, Chengdu, Sichuan, China). Then, single pass intestine perfusion studies were conducted according to the literature. In brief, rats were anaesthetized by pentobarbital sodium (i.p., […]) and placed on a homeothermic pad to maintain their body temperature. After making a 3–4 cm midline abdominal incision, the small intestinal was exposed. The duodenum, jejunum and ileum were isolated as follows: duodenum segment beginning from 1 cm away from pylorus, jejunum segment beginning from 20 cm away from pylorus and ileum segment beginning at the site 20 cm upwards caecum. Each intestinal segment was approximately 10 cm long. After removing the intestinal content by rinsing with warm saline, two glass cannulas were inserted to the distal and proximal end of the segment. Then, the intestinal segments of interest were connected to a perfusion pump and the outlet tubing was placed at the same height as the inlet. The intestine was handled carefully to maintain an intact blood supply.
The segments were rinsed with perfusate at the rate of 1.0 mL/min for 10 min, and then perfused at the rate of 0.2 mL/min for 30 min to maintain a steady-state. The time was set zero immediately when the perfusion started. The outlet perfused samples were collected every 15 min until 120 min. Then, the samples were centrifuged at 1.3 × 10^4 rpm for 10 min. The supernatant was analyzed by HPLC. The length of tested segments was measured and rats were euthanized after experiment.
Peff is the quantitative parameter estimating the passage rate of a solute across a membrane. It was calculated from the steady-state concentration of NCE in the perfusate. The drug concentration in the perfusate was corrected for changes in the water flux. Meanwhile, the density corrected gravimetric method was employed to calculate the net water flux across the incubated intestinal segment. A known volume of perfusate was weighed using an electronic weighing balance to determine the density of the collected samples. After correcting for water flux, the drug concentration in the effluent perfusate (Cout(cor)), was calculated as following.
(3) Cout(cor)=Cout×Qout/Qin
where Cout is the concentration of tested drug in the effluent perfusates, Qin and Qout are the inlet and outlet flow rate (mL/min), respectively, which are adjusted for liquid density (mL/min).
The calculation of permeability across rat intestinal segment was performed from the intestinal perfusate samples collected over 15–120 min (steady state) using the following equation).
(4) Peff=-Qin ln(Cout(cor)/Cin)/2πrl

[2] = system: rat duodenum, jejunum and ileum; set-up: method as in PMID 15296954, PMID 8893271; details: reference compounds; cited from earlier work
rats = system: rats; set-up: method as in ref 24 = [24]; 24. Ma N. Wang J. Xu F. Li J. Li Y. Xiao H. Xiang D. Studies on absorptive characters of resveratrol derivative (e)-3,5,4′-trimethoxystilbene in rat intestine Chin. J. Pharm. Anal 2010 30 586 591; details: in perfusion buffer, preliminary experiments; cited from earlier work

Peff ([1]; Duodenum) | Peff ([1]; Ileum) | Peff ([1]; Jejunum) | SMILES | permeability class [2] | concentration toxic to rats (rats)
0.15 ± 0.07 ^* 10^−4 cm/s | 0.17 ± 0.02 ^N.S ^* 10^−4 cm/s | 0.19 ± 0.07 ^N.S. ^* 10^−4 cm/s | CNC(=C[N+](=O)[O-])NCCSCc1ccc(CN(C)C)o1 [Ranitidine, reference compound] | low permeability | –
– | – | – | CCCCCCCCCCCCOS(=O)(=O)[O-].[Na+] [SDS, sodium dodecyl sulfate] | – | higher than 1%
0.74 ± 0.02 ^* 10^−4 cm/s | 0.63 ± 0.04 ^N.S. ^* 10^−4 cm/s | 0.64 ± 0.01 ^N.S. ^* 10^−4 cm/s | Cn1c(=O)c2[nH]cnc2n(C)c1=O [Theophylline, reference compound] | – | –
